# Experimental data published in patent US4395403A, “Polypeptides, processes for their production, pharmaceutical compositions comprising said polypeptides and their use” (Sandoz Ltd., priority 1979, dated 1983).
# Key:
# gastric secretion = test: TEST II: inhibition of pentagastrin-stimulated gastric secretion in pylorus-ligated rats; format: in vivo, rat; conditions: i.m., 100 μg/kg pentagastrin s.c., 30 mins
# Protocol: Male rats (220-280 g) are kept in the laboratory in individual cages for several days (14 hours light/day) with 48 hours fasting (but free access to water) immediately prior to the experiment. At start of the experiment the pylorus is ligated under ether anaesthesia and 100 μg/kg pentagastrin are injected s.c. to stimulate gastric secretion. The test compounds are injected simultaneously i.m. 30 mins. later the animals are sacrificed, the volume of gastric juice measured and the acid concentration estimated (titration with thymol blue). The acid output is calculated and the percent inhibition estimated in relation to untreated controls.
# Polypeptides in accordance with the invention are active in this test when administered at a dosage in the range of from 0.01 to 100 μg/kg i.m.
# [1] = tested on: GH-secretion (serum GH-level); test: TEST I: depression of serum GH-levels in the rat (GH-secretion inhibition); format: in vivo; conditions: male rats under Nembutal narcosis, 15 minutes after administration
# Protocol: This test (TEST I) is carried out employing male rats under Nembutal narcosis. The test-substance is administered at varying, logarithmically staggered doses employing at least 4 rats per dose. The rats are decapitated 15 minutes after administration, the blood is collected and the serum GH-level determined by radio-immuno-assay.
# Polypeptides in accordance with the invention are active in this test when administered at a dosage in the range of from 0.01 to 100 μg/kg i.v. or i.m.
SMILES,ID50 in TEST II for acid concentration (gastric secretion),ID50 in TEST II for gastric juice content (gastric secretion),ID50 in TEST I (amount required to effect 50% inhibition of serum GH-level compared with untreated controls) ([1]; i.m.),ID50 in TEST I (amount required to effect 50% inhibition of serum GH-level compared with untreated controls) ([1]; i.v.)
C[C@@H](O)[C@@H]1NC(=O)[C@H](CCCCN)NC(=O)[C@@H](Cc2c[nH]c3ccccc23)NC(=O)[C@H](Cc2ccccc2)NC(=O)[C@@H](NC(=O)[C@H](N)Cc2ccccc2)CSSC[C@@H](C(=O)N[C@H](CO)[C@@H](C)O)NC1=O [Example 1],0.0004 mg/kg,0.0007 mg/kg,–,–
C[C@H](N)C(=O)NCC(=O)N[C@H]1CSSC[C@@H](C(=O)O)NC(=O)[C@H](CO)NC(=O)[C@H]([C@@H](C)O)NC(=O)[C@H](Cc2ccccc2)NC(=O)[C@H]([C@@H](C)O)NC(=O)[C@H](CCCCN)NC(=O)[C@H](Cc2c[nH]c3ccccc23)NC(=O)[C@H](Cc2ccccc2)NC(=O)[C@H](Cc2ccccc2)NC(=O)[C@H](CC(N)=O)NC(=O)[C@H](CCCCN)NC1=O [somatostatin],0.035 mg/kg,0.055 mg/kg,0.0056 mg/kg,0.062 mg/kg
